Measurements: patent publication US9695160B2, “Piperazine derivatives for treating disorders” (THE UNIVERSITY OF NOTTINGHAM, priority 2014, dated 2017)
Entries after “also recorded” stand apart in the source; their conditions may differ. Read-outs that look alike come from different tables or passages of the source.

How the values were obtained:
SRSF1 localisation [1] = assay: SRSF1 nuclear localisation by immunofluorescence in MDA-MB231 cells; format: cell-based
SRSF1 localisation [2] = assay: SRSF1 nuclear localisation by immunofluorescence in PC3 cells; format: cell-based
[3] = Scleral permeability, modified Ussing chamber, rabbit eye tissue; details: rabbit sclera; for detection in the vitreous: 24 hours
Experimental: (§1) Scleral permeability was measured using a modified Ussing chamber assembly in isotonic assay buffer (pH 7.4). Rabbit or porcine excised eye tissues were mounted in the chambers such that the episcleral side faced the donor chamber and the retinal side faced the receiver chamber. The chambers were filled with equal volumes of assay buffer, with (donor side) or without (receiver side) 1 μg/ml compound. After 4 or 24 hours tissue was removed from the chamber and the receiver side (“vitreous”) sampled. Tissue was dissected into sclera, choroid/RPE, and retina and homogenised.
(§2) After 0, 4 or 24 hours, the fluid from the bottom chamber (vitreous) and the retinal tissue was isolated and compounds purified by acetonitrile extraction and HPLC.

VEGF165b [4] = assay: VEGF165b expression in RPE cells; format: cell-based
in vitro = details: human
From the text: We also tested the half life of these compounds when exposed to human liver microsomes.

[5] = Solubility in water of salt forms; details: salt forms versus free compounds
SRPK1 [6] = molecular target: T1, SRPK1 (Homo sapiens (Human), UniProt Q96SB4); assay: In vitro kinase assay (Kinase-Glo), SRPK1 inhibition; format: biochemical; details: Table 2, SRPK1 inhibition assay
T1 sequence (Q96SB4 whole entry): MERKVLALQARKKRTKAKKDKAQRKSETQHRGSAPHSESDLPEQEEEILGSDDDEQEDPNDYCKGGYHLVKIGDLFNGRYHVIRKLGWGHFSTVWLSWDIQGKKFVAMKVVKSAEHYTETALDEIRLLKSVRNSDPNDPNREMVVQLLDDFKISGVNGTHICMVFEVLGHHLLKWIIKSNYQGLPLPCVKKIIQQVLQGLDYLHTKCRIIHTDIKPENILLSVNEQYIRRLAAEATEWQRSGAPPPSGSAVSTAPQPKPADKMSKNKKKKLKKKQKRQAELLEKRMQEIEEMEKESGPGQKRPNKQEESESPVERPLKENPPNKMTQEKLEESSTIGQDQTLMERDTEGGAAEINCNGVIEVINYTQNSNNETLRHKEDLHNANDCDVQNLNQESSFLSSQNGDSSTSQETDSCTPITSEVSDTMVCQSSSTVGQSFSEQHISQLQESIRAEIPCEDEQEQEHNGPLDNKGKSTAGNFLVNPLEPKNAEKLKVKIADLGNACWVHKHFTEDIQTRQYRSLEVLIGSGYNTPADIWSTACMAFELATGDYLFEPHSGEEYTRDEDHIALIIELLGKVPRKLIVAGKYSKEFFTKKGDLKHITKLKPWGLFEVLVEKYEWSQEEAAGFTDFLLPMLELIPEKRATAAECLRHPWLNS
Experimental: Candidate compounds were serially diluted from 10 μM-0.5 nM and added to the reaction mixture, wells with omitted SRPK1 kinase and omitted compounds were also added as controls. All wells contained one percent DMSO. One micromolar ATP was added, wells minus ATP were used as background controls. The plate was then incubated at 30° C. for 10 minutes. An equal volume of Kinase-Glo (Promega, 25 μl) was added to each well and the plate read for luminescence using an Fluostar Optima (BMG Labtech).

[7] = Scleral permeability, modified Ussing chamber, porcine eye tissue; format: in vitro ADME; details: porcine eyes
Experimental: as §1, §2

[8] = system: choroidal neovascularisation; details: mouse models of CNV, previously shown; cited from earlier work
SRPK1 [9] = molecular target: T1, SRPK1; details: read-out: IC50 of SRPK1 inhibition; previously shown; cited from earlier work
[10] = molecular target: human ether a go-go related gene (hERG) K+ channel (Homo sapiens (Human), UniProt Q12809); details: previously described (Gammons et al., 2013); cited from earlier work
Chain of human ether a go-go related gene (hERG) K+ channel (Q12809 whole entry): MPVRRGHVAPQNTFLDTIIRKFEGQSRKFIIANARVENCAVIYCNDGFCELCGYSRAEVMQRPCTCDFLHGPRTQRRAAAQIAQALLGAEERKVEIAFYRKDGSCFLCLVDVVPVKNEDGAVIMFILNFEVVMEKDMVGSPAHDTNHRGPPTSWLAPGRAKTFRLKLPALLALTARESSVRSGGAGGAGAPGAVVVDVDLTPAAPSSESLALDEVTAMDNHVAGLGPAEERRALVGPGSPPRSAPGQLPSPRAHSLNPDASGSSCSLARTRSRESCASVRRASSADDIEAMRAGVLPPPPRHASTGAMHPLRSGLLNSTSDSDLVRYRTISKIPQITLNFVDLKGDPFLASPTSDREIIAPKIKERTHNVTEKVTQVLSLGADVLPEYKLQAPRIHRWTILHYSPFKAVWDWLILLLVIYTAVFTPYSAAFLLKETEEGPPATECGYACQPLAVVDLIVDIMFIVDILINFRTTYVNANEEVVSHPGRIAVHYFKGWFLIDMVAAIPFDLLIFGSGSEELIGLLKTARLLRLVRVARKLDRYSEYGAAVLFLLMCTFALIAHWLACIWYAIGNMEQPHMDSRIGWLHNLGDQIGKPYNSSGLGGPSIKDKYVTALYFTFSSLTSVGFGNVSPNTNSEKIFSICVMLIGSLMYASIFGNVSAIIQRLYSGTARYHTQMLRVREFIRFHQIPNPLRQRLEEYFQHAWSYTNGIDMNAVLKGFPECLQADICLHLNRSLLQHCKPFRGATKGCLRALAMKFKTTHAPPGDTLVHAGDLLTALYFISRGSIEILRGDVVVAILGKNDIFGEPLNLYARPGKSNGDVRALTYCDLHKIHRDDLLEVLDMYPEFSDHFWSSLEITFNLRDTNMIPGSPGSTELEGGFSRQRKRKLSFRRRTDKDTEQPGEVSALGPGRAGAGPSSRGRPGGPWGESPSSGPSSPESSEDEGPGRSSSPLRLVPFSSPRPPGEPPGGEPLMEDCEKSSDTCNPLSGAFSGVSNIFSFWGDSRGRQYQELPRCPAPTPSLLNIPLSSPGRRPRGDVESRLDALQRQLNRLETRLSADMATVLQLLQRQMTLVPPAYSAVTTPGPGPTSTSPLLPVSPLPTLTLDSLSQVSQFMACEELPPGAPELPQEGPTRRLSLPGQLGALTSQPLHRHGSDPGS

VEGF165b [11] = details: cited from earlier work
[12] = format: cell-based
From the text: To test whether compounds of Formula (I) are safe to administer to patients we began a basic safety test of these compounds in vitro.

[13] = monthly 0.5 mg, at one year; cited from earlier work

O=C(Nc1cc(C(F)(F)F)ccc1N1CCN(Cc2ccccn2)CC1)c1ccc(-c2ccncc2)o1 [Compound 12]
SRSF1 cellular localisation (SRSF1 localisation [1]): inhibited cellular localisation
SRSF1 cellular localisation (SRSF1 localisation [2]): inhibited cellular localisation
detection in the vitreous [3]: more SPHINX31 than pazopanib
expression of anti-angiogenic VEGF165b (VEGF165b [4]): dose dependent increase in VEGF165b
half-life (in vitro; microsomes): 1.02 h
solubility in water [5]: more freely soluble in water

O=C(Nc1cc(C(F)(F)F)ccc1N1CCN(Cc2ccncc2)CC1)c1ccc(-c2ccncc2)o1 [Compound 14]
solubility in water [5]: more freely soluble in water

O=C(Nc1cc(C(F)(F)F)ccc1N1CCN(Cc2ccccc2)CC1)c1ccc(-c2cccnc2)o1 [Compound 21]
half-life (in vitro; liver microsomes): 1.04 h
IC50 (SRPK1 [6]): 4.6 nM

Cc1ccc(Nc2nccc(N(C)c3ccc4c(C)n(C)nc4c3)n2)cc1S(N)(=O)=O [pazopanib]
accumulation in sclera and RPE/Choroid layer [7]: accumulated in the sclera and in the RPE/Choroid layer
penetration into retina and vitreous [7]: did not penetrate the retina
detection in retina and vitreous ([3]; 4 hrs): could not
detection in the vitreous [3]: detected

Cc1cnc(C(=O)Nc2cc(C(F)(F)F)ccc2N2CCN(Cc3ccccn3)CC2)o1 [Compound 27]
IC50 (SRPK1 [6]): 10000 nM

O=C(Nc1cc(C(F)(F)F)ccc1N1CCCCC1)c1ccncc1 [SRPIN340]
eye drop concentration of maximum anti-angiogenic effect [8]: 10 µg/mL
IC50 (SRPK1 [9]): 1000 nM
hERG inhibition [10]: do not inhibit hERG

CN1CCN(c2ccc(C(F)(F)F)cc2NC(=O)c2nc(-c3ccccc3)c[nH]2)CC1 [Compound 41]
IC50 (SRPK1 [6]): 493 nM

CSc1nccc(CN2CCN(c3ccc(C(F)(F)F)cc3NC(=O)c3ccc(C)o3)CC2)n1 [Compound 31]
IC50 (SRPK1 [6]): 1.9 nM

Cc1ccc(C(=O)Nc2cc(C(F)(F)F)ccc2N2CCN(Cc3ccccc3)CC2)o1 [Compound 20]
half-life (in vitro; liver microsomes): 0.283 h
IC50 (SRPK1 [6]): 4.4 nM

O=C(Nc1cc(C(F)(F)F)ccc1N1CCN(Cc2ccccn2)CC1)c1nc(-c2ccccc2)no1 [Compound 34]
IC50 (SRPK1 [6]): 5310 nM

bevicizumab: an anti-VEGF antibody from which Lucentis was derived
binding of VEGF165b versus VEGF165 (VEGF165b [11]): equal potency

Cc1nnc(C(=O)Nc2cc(C(F)(F)F)ccc2N2CCN(Cc3ccccn3)CC2)o1 [Compound 28]
IC50 (SRPK1 [6]): 10000 nM

CN(C)CCN1CCN(c2ccc(C(F)(F)F)cc2NC(=O)c2ccc(-c3ccncc3)o2)CC1 [SPHINX7]
doses at which toxic [12]: greater than 10 μM

Cc1ccc(C(=O)Nc2cc(C(F)(F)F)ccc2N2CCOCC2)o1 [SPHINX]
eye drop concentration of maximum anti-angiogenic effect [8]: 10 µg/mL
hERG inhibition [10]: did not inhibit hERG; also recorded: do not inhibit hERG

O=C(Nc1cc(C(F)(F)F)ccc1N1CCN(Cc2cnccn2)CC1)c1ccco1 [Compound 43]
IC50 (SRPK1 [6]): 183 nM

CN1CCN(c2ccc(C(F)(F)F)cc2NC(=O)c2cccs2)CC1 [Compound 40]
IC50 (SRPK1 [6]): 4690 nM

O=C(Nc1cc(C(F)(F)F)ccc1N1CCN(Cc2ccccc2)CC1)c1ccco1 [Compound 19]
IC50 (SRPK1 [6]): 14.1 nM

O=C(Nc1cc(C(F)(F)F)ccc1N1CCN(Cc2cccnc2)CC1)c1ccc(-c2ccncc2)o1 [Compound 13]
solubility in water [5]: more freely soluble in water

B1: Lucentis: a novel humanized anti-VEGF antibody fragment (antibody, chains of the INN, looked up, V domains shown)
VH: EVQLVESGGGLVQPGGSLRLSCAASGYDFTHYGMNWVRQAPGKGLEWVGWINTYTGEPTYAADFKRRFTFSLDTSKSTAYLQMNSLRAEDTAVYYCAKYPYYYGTSHWYFDVWGQGTLVTVSS
VL: DIQLTQSPSSLSASVGDRVTITCSASQDISNYLNWYQQKPGKAPKVLIYFTSSLHSGVPSRFSGSGSGTDFTLTISSLQPEDFATYYCQQYSTVPWTFGQGTKVEIK
modifications: Fab
notes: a novel humanized anti-VEGF antibody fragment
patients who maintained visual acuity (loss of <15 letters) [13]: approximately 95%
patients with improved vision (gain of ≧15 letters) [13]: ≤ 40%
